From patent publication US20250381157A1, “ANTIMICROBIAL COMPOUNDS” (priority 2022, published 2025)

Tests used:
recombinant human HDAC4 = biological target: T1, recombinant human HDAC4 (Homo sapiens, UniProt P56524); test: HDAC4 in-vitro enzymatic assay; type: biochemical
T1 construct: purchased BPS 50004
Protocol: (§1) All of the compounds were dissolved in DMSO. A series of dilutions of the compounds were prepared with 10% DMSO in HDAC assay buffer and 5 μl of the dilution was added to a 50 μl reaction so that the final concentration of DMSO was 1% in all of reactions. The compounds were pre-incubated in duplicate at RT for 30 minutes in a mixture containing HDAC assay buffer, 5 μg BSA, HDAC enzyme and a test compound. After 30 minutes, the enzymatic reactions were initiated by the addition of HDAC substrate to a final concentration of 20 μM or 2 μM. The enzymatic reaction proceeded for 30 minutes at 37° C. After enzymatic reactions, 50 μl of 2×HDAC Developer was added to each well for the HDAC enzymes and the plate was incubated at room temperature for an additional 15 minutes. Fluorescence intensity was measured at an excitation of 360 nm and an emission of 460 nm using a Tecan Infinite M1000 microplate reader.
(§2) HDAC activity assays were performed in duplicates at each concentration. The fluorescent intensity data were analyzed using the computer software, Graphpad Prism. […] The percent activity in the presence of each compound was calculated according to the following equation: % activity=(F−Fb)/(Ft−Fb), where F=the fluorescent intensity in the presence of the compound. […] The IC50 value was determined by the concentration causing a half-maximal percent activity.

[1] = Dose escalation toxicity and MTD in mouse; settings: in vivo
recombinant human HDAC7 = biological target: T2, recombinant human HDAC7 (Homo sapiens, UniProt Q8WUI4); test: HDAC7 in-vitro enzymatic assay; type: biochemical
T2 construct: purchased BPS 50007
T2 sequence (Q8WUI4 1-952): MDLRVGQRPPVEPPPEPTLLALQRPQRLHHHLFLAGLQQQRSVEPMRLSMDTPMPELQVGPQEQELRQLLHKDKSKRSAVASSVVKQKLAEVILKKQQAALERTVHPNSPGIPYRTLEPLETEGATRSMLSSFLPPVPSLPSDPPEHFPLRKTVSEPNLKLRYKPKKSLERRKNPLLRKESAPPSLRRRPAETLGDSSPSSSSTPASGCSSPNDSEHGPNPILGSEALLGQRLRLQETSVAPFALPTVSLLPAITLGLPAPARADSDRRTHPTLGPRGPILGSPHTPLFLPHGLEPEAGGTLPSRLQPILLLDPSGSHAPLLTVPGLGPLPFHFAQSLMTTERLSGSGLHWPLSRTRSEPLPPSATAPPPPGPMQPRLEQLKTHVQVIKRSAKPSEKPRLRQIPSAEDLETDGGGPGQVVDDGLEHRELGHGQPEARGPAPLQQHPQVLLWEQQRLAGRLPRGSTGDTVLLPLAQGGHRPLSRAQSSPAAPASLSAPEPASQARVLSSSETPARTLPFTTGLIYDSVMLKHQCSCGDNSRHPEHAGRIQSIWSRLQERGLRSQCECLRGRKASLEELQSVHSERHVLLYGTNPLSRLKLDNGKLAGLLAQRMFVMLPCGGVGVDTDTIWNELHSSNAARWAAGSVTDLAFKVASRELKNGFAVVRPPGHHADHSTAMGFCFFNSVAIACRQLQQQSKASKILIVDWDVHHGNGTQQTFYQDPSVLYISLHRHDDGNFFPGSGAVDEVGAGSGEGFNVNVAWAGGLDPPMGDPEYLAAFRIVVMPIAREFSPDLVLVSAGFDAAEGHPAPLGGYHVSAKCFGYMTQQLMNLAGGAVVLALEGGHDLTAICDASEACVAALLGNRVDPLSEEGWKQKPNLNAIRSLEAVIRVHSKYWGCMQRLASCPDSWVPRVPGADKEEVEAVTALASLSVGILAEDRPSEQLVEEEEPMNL
Protocol: as §1, §2

recombinant human HDAC9 = biological target: T3, recombinant human HDAC9 (Homo sapiens, UniProt Q9UKV0); test: HDAC9 in-vitro enzymatic assay; type: biochemical
T3 construct: purchased BPS 50009
T3 sequence (Q9UKV0 whole entry): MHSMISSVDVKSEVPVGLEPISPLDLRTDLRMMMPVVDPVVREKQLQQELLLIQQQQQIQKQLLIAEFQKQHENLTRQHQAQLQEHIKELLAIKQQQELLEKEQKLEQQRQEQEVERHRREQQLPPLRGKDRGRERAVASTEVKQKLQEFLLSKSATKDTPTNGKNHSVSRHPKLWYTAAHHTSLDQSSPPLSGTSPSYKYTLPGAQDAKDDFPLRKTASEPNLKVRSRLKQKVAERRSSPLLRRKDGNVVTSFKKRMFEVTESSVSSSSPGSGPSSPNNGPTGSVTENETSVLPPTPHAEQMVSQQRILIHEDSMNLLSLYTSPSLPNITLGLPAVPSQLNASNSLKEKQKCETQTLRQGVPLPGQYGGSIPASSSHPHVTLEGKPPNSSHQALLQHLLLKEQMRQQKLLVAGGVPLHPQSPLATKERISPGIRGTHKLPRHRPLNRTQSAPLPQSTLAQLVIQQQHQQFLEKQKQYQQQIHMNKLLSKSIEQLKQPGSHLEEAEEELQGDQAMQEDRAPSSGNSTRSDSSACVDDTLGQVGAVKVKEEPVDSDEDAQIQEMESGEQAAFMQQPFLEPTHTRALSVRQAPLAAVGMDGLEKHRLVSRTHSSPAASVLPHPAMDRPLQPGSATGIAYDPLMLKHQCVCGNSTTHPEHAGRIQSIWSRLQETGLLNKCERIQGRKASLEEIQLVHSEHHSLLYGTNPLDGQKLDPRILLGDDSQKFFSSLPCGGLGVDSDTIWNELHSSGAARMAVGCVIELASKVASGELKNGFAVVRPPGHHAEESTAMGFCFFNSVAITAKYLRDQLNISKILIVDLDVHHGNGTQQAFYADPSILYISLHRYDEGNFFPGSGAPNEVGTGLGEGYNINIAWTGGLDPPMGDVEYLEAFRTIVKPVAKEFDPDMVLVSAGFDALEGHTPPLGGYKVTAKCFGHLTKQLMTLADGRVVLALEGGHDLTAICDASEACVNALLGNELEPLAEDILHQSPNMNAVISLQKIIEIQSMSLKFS
Protocol: as §1, §2

Plasma stability Rat = type: in vitro ADME
recombinant human HDAC5 = biological target: T4, recombinant human HDAC5 (Homo sapiens, UniProt Q9UQL6); test: HDAC5 in-vitro enzymatic assay; type: biochemical
T4 construct: purchased BPS 50005
T4 sequence (Q9UQL6 whole entry): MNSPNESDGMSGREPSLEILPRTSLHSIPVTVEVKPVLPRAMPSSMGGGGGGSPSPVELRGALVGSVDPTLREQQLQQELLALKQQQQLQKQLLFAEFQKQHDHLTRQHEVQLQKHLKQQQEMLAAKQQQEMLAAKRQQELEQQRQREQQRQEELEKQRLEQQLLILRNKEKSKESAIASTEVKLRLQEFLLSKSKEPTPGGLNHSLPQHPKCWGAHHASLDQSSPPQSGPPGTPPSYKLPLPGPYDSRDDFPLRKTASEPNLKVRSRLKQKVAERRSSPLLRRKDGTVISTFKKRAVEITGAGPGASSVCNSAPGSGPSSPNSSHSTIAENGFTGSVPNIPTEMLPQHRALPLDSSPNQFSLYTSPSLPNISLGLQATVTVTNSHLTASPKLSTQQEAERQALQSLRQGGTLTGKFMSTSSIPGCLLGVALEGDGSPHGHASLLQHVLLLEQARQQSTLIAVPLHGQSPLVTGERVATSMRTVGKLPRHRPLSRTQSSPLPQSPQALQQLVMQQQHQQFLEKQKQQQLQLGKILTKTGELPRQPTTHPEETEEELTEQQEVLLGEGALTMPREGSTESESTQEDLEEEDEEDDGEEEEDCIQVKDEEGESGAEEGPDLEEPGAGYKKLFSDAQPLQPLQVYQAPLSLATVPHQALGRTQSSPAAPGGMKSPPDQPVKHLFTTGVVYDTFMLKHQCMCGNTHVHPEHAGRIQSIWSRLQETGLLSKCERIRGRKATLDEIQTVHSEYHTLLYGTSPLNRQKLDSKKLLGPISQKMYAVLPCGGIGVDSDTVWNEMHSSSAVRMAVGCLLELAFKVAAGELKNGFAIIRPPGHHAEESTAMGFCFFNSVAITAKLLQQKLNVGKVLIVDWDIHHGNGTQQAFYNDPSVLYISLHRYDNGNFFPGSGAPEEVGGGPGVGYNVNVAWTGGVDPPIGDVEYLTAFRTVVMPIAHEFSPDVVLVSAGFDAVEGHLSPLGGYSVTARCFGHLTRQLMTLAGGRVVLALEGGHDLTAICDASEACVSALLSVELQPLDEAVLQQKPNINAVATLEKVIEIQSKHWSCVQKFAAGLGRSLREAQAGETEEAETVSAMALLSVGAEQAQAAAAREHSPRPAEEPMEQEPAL
Protocol: as §1, §2

Plasma stability Mouse = type: in vitro ADME
E. coli = E. coli mouse infection model; type: in vivo; settings: for translocation of bacteria to liver and spleen: oral, CFU in liver
Protocol: FIG. 1: E. coli mouse infection model. CFU measured in tissue: colon, ileum, liver, spleen. Statistical analysis was performed by comparing all conditions to the vehicle-treated group and using one-way ANOVA with Dunnett post-hoc test, *** p<0.001, **** p<0.0001, ns non-significant.
Compound 1 was administered orally to a mouse model of E. coli infection at 25 mg/kg, 73.5 mk/kg and 50 mg/kg. Compound 1 achieved the study goal of lowering Colony Unit Forming count in colon tissue by a factor of 3 log10 compared to vehicle treated animals.
• Infecting mice through oral administration of a vancomycin resistant pathogenic strain of E. coli simplified the process of determining the mechanism(s) by which compound 1 exerts its effects on the pathogenic process. […] This is evidenced by the fact that there still are viable vancomycin resistant E. coli present in the colon and ileum at the conclusion of the experiment (FIG. 1). […] It is therefore unlikely that compound 1 is inhibiting E. coli translocation to these organs solely due to its ability to stimulate production of antibacterial peptides. […] That experiment was performed in the presence of cyclophosphamide, which is known to cause febrile neutropenia due to translocation of bacteria to vital organs. […] First is the ability of the compound 1 to attenuate the growth of bacteria and secondly is its ability to inhibit the bacterial translocation.

[2] = Mouse ileum C-max after single PO dose; type: in vivo
recombinant human HDAC2 = biological target: T5, recombinant human HDAC2 (Homo sapiens, UniProt Q92769); test: biochemical
T5 construct: purchased BPS 50002
T5 sequence (Q92769 whole entry): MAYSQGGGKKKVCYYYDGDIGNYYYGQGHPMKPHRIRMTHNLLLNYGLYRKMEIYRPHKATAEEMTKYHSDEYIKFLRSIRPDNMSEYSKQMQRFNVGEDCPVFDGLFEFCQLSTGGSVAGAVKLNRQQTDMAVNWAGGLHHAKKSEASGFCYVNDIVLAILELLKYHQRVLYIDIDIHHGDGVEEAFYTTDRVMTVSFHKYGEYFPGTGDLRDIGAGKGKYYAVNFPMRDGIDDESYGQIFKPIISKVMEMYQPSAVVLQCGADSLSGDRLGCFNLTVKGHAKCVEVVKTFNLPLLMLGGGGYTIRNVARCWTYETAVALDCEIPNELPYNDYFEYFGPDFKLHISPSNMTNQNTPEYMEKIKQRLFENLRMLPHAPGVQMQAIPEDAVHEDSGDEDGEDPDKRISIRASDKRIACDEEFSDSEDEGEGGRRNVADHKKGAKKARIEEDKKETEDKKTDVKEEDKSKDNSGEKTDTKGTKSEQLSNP
Protocol: as §1, §2

T1 sequence (P56524 whole entry): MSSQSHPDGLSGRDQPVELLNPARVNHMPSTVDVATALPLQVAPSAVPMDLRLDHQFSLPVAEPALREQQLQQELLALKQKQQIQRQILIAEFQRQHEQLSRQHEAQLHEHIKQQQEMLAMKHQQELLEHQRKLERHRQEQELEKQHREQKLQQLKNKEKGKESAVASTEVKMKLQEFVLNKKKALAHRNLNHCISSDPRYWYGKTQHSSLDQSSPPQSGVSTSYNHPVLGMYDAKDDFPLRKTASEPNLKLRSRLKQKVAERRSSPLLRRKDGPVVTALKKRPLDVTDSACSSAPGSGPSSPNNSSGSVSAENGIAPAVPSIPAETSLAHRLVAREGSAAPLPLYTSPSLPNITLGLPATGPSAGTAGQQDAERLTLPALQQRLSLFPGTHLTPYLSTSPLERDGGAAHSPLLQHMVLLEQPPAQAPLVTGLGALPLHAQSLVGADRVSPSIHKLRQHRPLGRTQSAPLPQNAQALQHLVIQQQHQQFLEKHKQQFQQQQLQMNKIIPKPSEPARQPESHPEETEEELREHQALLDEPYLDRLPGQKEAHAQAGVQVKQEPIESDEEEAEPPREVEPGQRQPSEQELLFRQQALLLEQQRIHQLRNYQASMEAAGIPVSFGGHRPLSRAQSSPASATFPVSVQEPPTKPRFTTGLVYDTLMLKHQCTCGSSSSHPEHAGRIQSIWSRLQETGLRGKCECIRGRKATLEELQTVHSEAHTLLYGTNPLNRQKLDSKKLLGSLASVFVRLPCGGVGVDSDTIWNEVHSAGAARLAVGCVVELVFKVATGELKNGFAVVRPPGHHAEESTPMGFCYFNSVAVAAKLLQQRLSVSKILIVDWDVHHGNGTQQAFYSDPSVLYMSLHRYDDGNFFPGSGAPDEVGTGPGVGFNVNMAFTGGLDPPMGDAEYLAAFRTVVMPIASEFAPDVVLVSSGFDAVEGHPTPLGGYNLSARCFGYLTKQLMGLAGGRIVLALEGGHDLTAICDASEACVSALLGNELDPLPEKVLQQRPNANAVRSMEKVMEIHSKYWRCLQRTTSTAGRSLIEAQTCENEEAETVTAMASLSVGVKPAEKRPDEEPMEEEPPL

Question: What does the source list for `C#CCOCC(=O)Nc1ccc(C(=O)Nc2ccccc2N)cc1` [Compound 1, N-(2-aminophenyl)-4-{2-[(prop-2-yn-1-yl)oxy]acetamido}benzamide]?
Answer: IC50 (recombinant human HDAC4): > 200 µM; Inhib. HDAC4 (recombinant human HDAC4; @ 200 μM): No Inhib. @ 200 μM; Dose Esc. Tox mouse iv ([1]; iv): 100 mg/kg; Dose Esc. Tox mouse PO ([1]; po): 50 mg/kg; IC50 (recombinant human HDAC7): > 200 µM; Inhib. HDAC7 (recombinant human HDAC7; @ 200 μM): No Inhib. @ 200 μM; IC50 (recombinant human HDAC9): > 200 µM; Inhib. HDAC9 (recombinant human HDAC9; @ 200 μM): No Inhib. @ 200 μM; Plasma stability Rat (Plasma stability Rat): High; IC50 (recombinant human HDAC5): > 200 µM; Inhib. HDAC5 (recombinant human HDAC5; @ 200 μM): No Inhib. @ 200 μM; Plasma stability Mouse (Plasma stability Mouse): Low; dose dependence of attenuation of E. coli growth in the colon and ileum (E. coli; FIG. 1): shows dose dependence; dose dependence of inhibition of vancomycin resistant E. coli translocation to the liver and spleen (E. coli; FIG. 1): not compound 1 dose dependent; lowering Colony Unit Forming count in colon tissue compared to vehicle treated animals (E. coli; administered orally at 25 mg/kg, 73.5 mk/kg and 50 mg/kg): 3 log10; E. coli burden in the intestines reduced compared to control (E. coli; colon and ileum, conclusion of the experiment): ~3 logs; translocation of bacteria to liver and spleen (E. coli): completely knocking out translocation; translocation of bacteria to liver and spleen (E. coli; listed as compound 1): totally inhibiting its translocation; PO single 5 mg/kg mouse - Ileum C-max ([2]; PO single 5 mg/kg): 0.9 µM; PO single 15 mg/kg mouse - Ileum C-max ([2]; PO single 15 mg/kg): 2.0 µM; PO single 50 mg/kg mouse - Ileum C-max ([2]; PO single 50 mg/kg): 7.1 µM; IC50 (recombinant human HDAC2): ~1.2 µM
